Results reported in US20110152263A1, “COMPOSITION AND METHOD FOR INHIBITING NOROVIRUS INFECTION” (priority 2006, published 2011).

Key:
[1] = test system: Norwalk virus binding to the H antigen; test: Saliva-based blocking EIA: Norwalk virus VLP binding to H antigen; design: species or system Norovirus; conditions: for EC50: Norwalk VLP binding to H antigen, read-out: EC50 rNorwalk H
Text: (§1) A saliva based blocking assay offers several advantages for anti-Norovirus agent screening. First, the assay is a solid phase blocking assay which is simple and suitable for large scale screening. Second, the source of HBGAs used in the assay was from healthy human volunteers, which is likely to represent the natural forms of Norovirus receptors. Third, the assay is highly sensitive and specific. Finally, a panel of saliva samples can be assembled from different individuals representing different blood types, from which the results obtained in primary screenings can be validated.
(§2) To optimize the blocking assays, we have titrated all reagents used in the assays including the VLPs, the first and second antibodies, the blocking reagent (dried cow milk), and a panel of saliva samples from different donors. […] For comparison of daily results, eight control wells containing everything but compounds were included in each plate, and the assays were considered valid when the daily OD450 variations in these wells were less than 20%. Less than 1% of the total screening runs failed in our study.
(§3) Cow milk contains a large amount of variable proteins, lipids and glycans which can easily interfere with the assay particularly when a low concentration of compounds (μM) was used in our screening. To avoid any false-negative results, the step of addition of blotto in the EIA for all screening experiments in this study was removed.
(§4) Baculovirus-expressed recombinant capsid proteins of four Norovirus strains representing four distinct receptor binding patterns were studied: Norovirus strains Norwalk, VA387, VA207, and MOH. The procedures of production of Norovirus VLPs in insect cell Spodoptera frugiperda (Sf9) have described in “Expression, self-assembly, and antigenicity of the Norwalk virus capsid protein”, J Virol 66:6527-32, Jiang et al (1992), and in “Baculovirus expression and antigenic characterization of the capsid proteins of three Norwalk-like viruses”, Arch Virol 147:119-30, Jiang et al. (2002), the disclosures of which are incorporated herein by reference. Briefly, a cDNA from the 3′ end of the genome containing the viral capsid gene (open reading frame 2 [ORF-2] was cloned from the viral RNA extracted from stool specimens. The recombinant baculoviruses carry the viral capsid genes were constructed from the cloned cDNAs using the Bac to Bac expression system according to the manufacture's instructions (Invitrogen Life Technologies, Carlsbad, Calif.). VLPs were partially purified by sucrose gradient centrifugation and stored at −80° C. Protein concentrations were determined by measuring the optical density at 280 nm (OD280) using a GeneQuant spectrophotometer (Pharmacia, Mich.) and by comparison with a bovine serum albumin standard in a sodium dodecyl sulfate-polyacrylamide gel (25). The purity of VLPs used in this study was over 90% which was determined by SDS-PAGE analysis.
(§5) Saliva samples were collected from healthy adult volunteers under an approval of human subject research protocol by the Institutional Review Board at the Cincinnati Children's Hospital Medical Center. Except for gender and race, no other personal information was collected. A total of 5-10 ml of saliva was collected from each volunteer, and the samples were processed immediately after collection. To avoid potential Norovirus-specific antibodies that may interfere in the receptor binding assays, saliva samples were boiled at 100° C. for 10 min, and then centrifuged at 10,000×g for 5 min. The clear supernatant was stored at −80° C. until use. The HBGA types of the saliva samples were determined by enzyme immune assays with monoclonal antibodies specific to human HBGAs (8). Saliva sample from a type A donor was selected for the primary screening, and a total of 25 saliva samples of known ABO, secretor, and Lewis types were selected for further studies to confirm the primary screening results. […]

[2] = test system: Human cervical carcinoma cells (HeLa); test: MTS cytotoxicity assay, HeLa cells; type: cell-based; conditions: 3 days, average of three experiments
[3] = target: VA387 VLPs binding to the A antigen; test: Saliva-based blocking EIA: VA387 VLP binding to type A saliva; design: species or system Norovirus; conditions: read-out: EC50 rVA387 A
Text: as §1, §2, §3, §4, §5

[4] = target: MOH binding to the A antigen; test: Saliva-based blocking EIA: MOH VLP binding to A antigen; design: species or system Norovirus; conditions: MOH VLP binding to type A saliva; read-out: EC50 rMOH A
Text: as §1, §2, §3, §4, §5

[5] = target: VA387 binding to the B antigen; test: Saliva-based blocking EIA: VA387 VLP binding to B antigen; design: species or system Norovirus; conditions: for EC50: VA387 VLP binding to B antigen saliva, read-out: EC50 rVA387 B; for inhibition of VA387 binding to the B antigen: one saliva sample
Text: as §1, §2, §3, §4, §5

[6] = test system: Norwalk virus binding to the A antigen; test: Saliva-based blocking EIA: Norwalk virus VLP binding to A antigen; design: species or system Norovirus; conditions: for EC50: Norwalk VLP binding to A antigen, read-out: EC50 rNorwalk A
Text: as §1, §2, §3, §4, §5

[7] = target: VA387 binding to the H antigen; test: Saliva-based blocking EIA: VA387 VLP binding to H antigen; design: species or system Norovirus; conditions: for EC50: VA387 VLP binding to H antigen saliva, read-out: EC50 rVA387 H; for inhibition of VA387 binding to the H antigen: one saliva sample
Text: as §1, §2, §3, §4, §5

[8] = target: MOH binding to the B antigen; test: Saliva-based blocking EIA: MOH VLP binding to B antigen; design: species or system Norovirus; conditions: MOH VLP binding to type B saliva; read-out: EC50 rMOH B
Text: as §1, §2, §3, §4, §5

[9] = target: VA207 binding to the Lewis antigens; test: Saliva-based blocking EIA: VA207 VLP binding to Lewis antigens; design: species or system Norovirus; conditions: VA207 VLP binding to Lewis antigen; read-out: EC50 rVA207 Le
Text: as §1, §2, §3, §4, §5

Row | Structure (SMILES) | EC50 [1] | CC50 [2] | EC50 [3] | EC50 [4] | EC50 [5] | inhibition of VA387 binding to the B antigen [5] | EC50 [6] | EC50 [7] | inhibition of VA387 binding to the H antigen [7] | EC50 [8] | EC50 [9] | inhibition of Norwalk virus binding to the H antigen [1] | blocking of Norwalk virus binding to the A antigen [6]
1 | Cc1ccc(NC(=O)CC(c2ccccc2)c2ccccc2)cc1C [Compound 9] | > 100 µM | 40.3 µM | 11.7 µM | > 100 µM | > 100 µM | did not have any inhibitory activity | > 100 µM | 47.5 µM | revealed inhibitory activity | > 100 µM | > 100 µM | – | –
2 | CC(C)OC(=O)CC(=O)CSc1nc(-c2ccc(F)cc2)cc(-c2cccs2)c1C#N [Compound 10] | 19.8 µM | – | 11.8 µM | > 100 µM | 7.9 µM | dose-dependant inhibition | 35 µM | 7.5 µM | dose-dependant inhibition | > 100 µM | > 100 µM | inhibited | blocked
3 | O=C(C(=O)c1ccc(C(=O)c2ccc(C(=O)C(=O)c3ccc(Sc4ccccc4)cc3)cc2)cc1)c1ccc(Sc2ccccc2)cc1 [Compound 11] | > 100 µM | – | 12.8 µM | > 100 µM | 35.3 µM | dose-dependant inhibition | > 100 µM | 26.1 µM | dose-dependant inhibition | > 100 µM | > 100 µM | – | –
4 | CCCCc1ccc(NC(=O)c2ccc(C)cc2)cc1 [Compound 12] | 47.8 µM | – | 12.8 µM | > 100 µM | 32.5 µM | dose-dependant inhibition | 53 µM | 28.2 µM | dose-dependant inhibition | > 100 µM | > 100 µM | – | blocked
5 | Cc1cc(O)c(Sc2c(O)cc(C)cc2C(C)(C)c2ccccc2)c(C(C)(C)c2ccccc2)c1 [Compound 13] | > 100 µM | 70.6 µM | 13.6 µM | > 100 µM | 49.5 µM | dose-dependant inhibition | > 100 µM | 48.1 µM | dose-dependant inhibition | > 100 µM | > 100 µM | – | –
6 | CCCOc1ccc(-c2cc(C(=O)N/N=C/c3ccc(OCC)cc3)[nH]n2)cc1 [Compound 14] | > 100 µM | 12.3 µM | 13.7 µM | > 100 µM | > 100 µM | did not have any inhibitory activity | > 100 µM | > 100 µM | did not have any inhibitory activity | > 100 µM | > 100 µM | – | –
7 | FC(F)(F)c1ccc(N/N=C/c2cc(Br)cs2)cc1 [Compound 15] | > 100 µM | 7.6 µM | 14.1 µM | > 100 µM | > 100 µM | did not have any inhibitory activity | 22.5 µM | > 100 µM | did not have any inhibitory activity | > 100 µM | > 100 µM | inhibited | blocked
